Measured values as given in patent US20140249105A1, “NOVEL CERAMIDE ANALOGUES, PROCESSES FOR PREPARING SAME AND USES THEREOF” (Diverchim, priority 2011, published 2014).
* marks the point of attachment. MeOSuc = COC(=O)CCC(=O)*; CH2Cl = ClC*

Legend:
B16 melanocytes [1] = assay: Screening of anti-melanogenesis activity: melanin assay in B16 melanocytes stimulated with NDP-MSH; format: cell-based; conditions: 72 h
Experimental: This was carried out for compounds in solution in DMSO. The synthesis of melanin was measured in a model of B16 melanocytes stimulated with a stable derivative of α-MSH (natural hormone that stimulates melanogenesis: Melanocyte Stimulating Hormone): NDP-MSH ([Nle^4, DPhe7]-α-MSH).
(§1) Melanocytes were seeded on a 96-well plate and cultured for 24 h (37° C., 5% CO2, DMEM 1 g/L glucose without phenol red supplemented with glucose 3 g/L, L-glutamine 2 mM, penicillin 50 U/mL, streptomycin 50 μg/mL, fetal calf serum (FCS) 10%). […] Each experimental condition was carried out with n=3, apart from the controls carried out with n=6. The cells were then incubated for 72 h. Wells without cells received in parallel the same quantities of medium, supplemented or not with NDP-MSH and with or without the test compounds or the reference in order to quantify the background noise associated with the presence of the compounds.
At the end of 72 hours of incubation, the total melanin (intra- and extracellular) was quantified by measuring the absorbance of each sample at 405 nm (direct reading of the culture plates) against a standard range of melanin (melanin concentrations tested from 0.78 to 100 μg/mL). The background noise, measured in the wells without cells, was subtracted from the values measured so that only the effect connected with the production of melanin is taken into account, without including any interference connected with the presence of the compounds. The results were expressed in percentage of melanin relative to the control as well as in percentage inhibition.

B16 melanocytes [2] = assay: Viability of the cells, test of reduction of MTT; format: cell-based; conditions: 72 h
Experimental: as §1
At the end of the treatment, the cells were incubated in the presence of MTT (3-(4,5-dimethylthiazol-2-yl)-2,5-diphenyl tetrazolium bromide), the conversion of which to blue crystals of formazan is proportional to the activity of succinate dehydrogenase (mitochondrial enzyme). After disruption of the cells, the formazan was dissolved in DMSO medium and the optical density (OD), representative of the number of live cells and of their metabolic reactivity, was measured with a microplate reader at 540 nm (VERSAmax, Molecular Devices).

[3] = system: Normal human dermal fibroblasts (NHDF); assay: Proliferation and/or migration of fibroblasts, artificial wound coverage; format: cell-based; conditions: percentage coverage at 24 h
Experimental: An increase in migration and proliferation of the cells allows an improvement in healing. • Biological model: Normal human dermal fibroblasts (NHDF) • Culture conditions: 37° C., 5% CO2 • Culture medium: DMEM • Conditions: • Control (NHDF in DMEM test medium 0% FCS) (n=6) • Reference: FCS (Fetal Calf Serum) at 10% (n=2) • compounds tested (n=2) • Incubation: 72 hours • Assay: Normal human fibroblasts were seeded on 96-well plates suitable for the migration studies. In these plates, the substrates were pretreated with a solution of collagen and a mask was placed at the centre of each well, preventing adhesion of the cells in this zone and thus forming an artificial wound. After labelling the cells with calcein, the masks were removed and then the cells were treated with the compounds or the reference. The migration of the cells was monitored microscopically for 72 hours, taking photographs at 0 h, 24 h, 48 h and 72 h. The results are expressed in percentage coverage and compared with the untreated control.

human leukocyte elastase = target: T1, human leukocyte elastase (Homo sapiens, UniProt P08246); assay: Inhibition of leukocyte elastase (EnzChek Elastase assay kit); format: biochemical; conditions: incubation 1 hour
T1 sequence (P08246 30-267): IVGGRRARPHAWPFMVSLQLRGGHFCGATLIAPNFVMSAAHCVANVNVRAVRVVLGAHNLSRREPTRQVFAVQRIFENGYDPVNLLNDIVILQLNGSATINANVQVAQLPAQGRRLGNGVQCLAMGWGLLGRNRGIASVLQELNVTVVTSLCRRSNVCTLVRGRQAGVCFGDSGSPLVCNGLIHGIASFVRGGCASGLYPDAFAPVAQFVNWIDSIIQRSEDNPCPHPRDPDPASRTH
Text: The elastases are a sub-family of serine proteases responsible for the degradation of elastin. The numerous natural substrates of this enzyme include, in addition to elastin, the proteoglycans of cartilage, fibronectin and the type I, II, III and IV collagens. At the cutaneous level, inhibition of elastase can combat the effects of ageing, whether or not photo-induced, and limit the appearance of wrinkles and stretch marks. • Biological model: human leukocyte elastase • Conditions: • Control (n=6) • Reference: AAPV (N-methoxysuccinyl-Ala-Ala-Pro-Val-chloromethyl ketone) 100 μM (n=6) • compounds tested (n=2) • Incubation: 1 hour • Assay: The activity of human leukocyte elastase was evaluated using the EnzChek® Elastase assay kit. The measurement of activity is based on the use of a fluorescent substrate (DQTM Elastin) whose fluorescence is “quenched” through the presence of “quencher” groups at the level of the lytic sites. After action of the enzyme, the “quencher” groups are released and the fluorescence emitted is proportional to the activity of the enzyme. The results are expressed in percentage inhibition of the enzyme activity.

[4] = system: Normal human epidermal keratinocytes (NHEK); assay: Proliferation and/or migration of keratinocytes, artificial wound coverage; format: cell-based; conditions: percentage coverage at 48 h
Experimental: The phases of migration and proliferation of cells are major phases of healing that occur after the inflammation phase and are necessary for recolonization of the wound. An increase in the migration and proliferation of cells allows an improvement in healing. • Biological model: Normal human epidermal keratinocytes (NHEK) • Culture conditions: 37° C., 5% CO2 • Culture medium: Keratinocyte-SFM-PE-EGF (keratinocyte culture medium—serum free medium (SFM) without pituitary extract (PE) and without Epidermal Growth Factor (EGF) • Conditions: • Control (n=6) • Reference: EGF (Epidermal Growth Factor) at 10 ng/ml (n=2) • compounds tested (n=2) • Incubation: 72 hours • Assay: Normal human keratinocytes were seeded on 96-well plates suitable for the migration studies. In these plates, the substrates were pretreated with a solution of collagen and a mask was placed at the centre of each well, preventing adhesion of the cells in this zone and thus forming an artificial wound. After labelling the cells with calcein, the masks were removed and then the cells were treated with the compounds or the reference. The migration of the cells was monitored microscopically for 72 hours, taking photographs at 0 h, 24 h, 48 h and 72 h. The results are expressed in percentage coverage and compared with the untreated control.

[5] = system: Human dermal fibroblasts aged according to the Hayflick model (P17NHDF); assay: Proliferation of aged human dermal fibroblasts, [3H]-thymidine incorporation; format: cell-based; conditions: 72 hours
Experimental: Thus, stimulation of the proliferation of the aged fibroblasts makes possible a partial reversal of the deleterious effects of ageing. • Biological model: Human dermal fibroblasts aged according to the Hayflick model (fibroblasts obtained by successive subculture) (P17NHDF) • Culture conditions: 37° C., 5% CO2 • Culture medium: DMEM/fetal calf serum (FCS) 10% • Conditions: • Control (n=6) • Control normal fibroblasts, not aged (P7 NHDF) (n=2) • Reference: EGF (Epidermal Growth Factor) at 10 ng/mL (n=2) • compounds tested (n=2) • Incubation: 72 hours • Assay: The effects on proliferation were evaluated by measuring the incorporation of [^3H]-thymidine in fibroblasts aged according to the Hayflick model. The Hayflick model consists of applying successive subcultures in order to induce an “aged” phenotype. The results are expressed in percentage stimulation of the incorporation of [^3H]-thymidine.

[6] = target: T2, tyrosinase (DOPA oxidase) (Homo sapiens, UniProt P14679); assay: Screening of anti-tyrosinase activity: DOPA oxidase reaction on separated epidermis, count of DOPA positive melanocytes per mm2; format: cell-based
T2 construct: from tissue; host or cells: separated human epidermis from a frozen abdominoplasty (melanocytes in situ)
T2 sequence (P14679 19-529): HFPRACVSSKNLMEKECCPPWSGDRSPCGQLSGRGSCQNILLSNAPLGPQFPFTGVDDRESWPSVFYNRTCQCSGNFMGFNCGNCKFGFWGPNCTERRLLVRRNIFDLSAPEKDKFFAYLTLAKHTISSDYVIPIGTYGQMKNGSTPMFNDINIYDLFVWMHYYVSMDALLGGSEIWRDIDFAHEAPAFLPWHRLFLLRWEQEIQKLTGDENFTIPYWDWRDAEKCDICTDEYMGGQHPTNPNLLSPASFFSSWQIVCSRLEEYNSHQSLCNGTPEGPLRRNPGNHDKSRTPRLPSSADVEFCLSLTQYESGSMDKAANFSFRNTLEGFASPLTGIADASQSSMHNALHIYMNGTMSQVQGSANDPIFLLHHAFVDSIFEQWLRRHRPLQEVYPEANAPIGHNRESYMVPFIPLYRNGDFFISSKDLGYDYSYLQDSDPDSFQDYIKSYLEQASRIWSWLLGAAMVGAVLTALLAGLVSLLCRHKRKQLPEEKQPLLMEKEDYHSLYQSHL
Experimental: The products are tested in solution at 30 μg/mL in DMSO. Epidermis samples originating from a frozen abdominoplasty (person) were separated by incubation in 2N NaBr for 1.0 h at 37° C. They were then fixed in a buffered formolized fixing agent, rinsed and put in contact with the volume/volume mixture: solutions of L-DOPA/test formulation. After incubation, they were rinsed and mounted between slide and cover slip with mounting liquid of the Aquatex type. Observation was by optical microscopy with ×10 objective. Images were obtained with a tri CCD Sony DXC […] camera and stored using the Leica IM1000 data archiving software. For each batch, several microscope fields were analysed using the LEICA QWin image analysis software. For each field, the DOPA positive melanocytes were counted and the area of the zone was measured to determine the melanocyte count per mm^2.

Compound: O=C(/C=C/CCCCCOC1CCCCO1)N[C@H]1CCC[C@H]1NC(=O)/C=C/CCCCCOC1CCCCO1 (stereo partly drawn) [c27]
- inhibition at 30 µM (B16 melanocytes [1]; Melanocyte, 30 μM, read-out: Normalized data inhibition (%)): 12%
- inhibition at 100 µM (B16 melanocytes [1]; Melanocyte, 100 μM, read-out: Normalized data inhibition (%)): 110%
- Viability (MTT) % stimulated control (B16 melanocytes [2]; 30 μM): 89 % stimulated control
- Viability (MTT) % stimulated control (B16 melanocytes [2]; 100 μM): 71 % stimulated control
- % control 24 h ([3]; 10 μM): 131 % control

Compound: CCCCCC=CCC=CCCCCCCCC(=O)NC1CCCC1NC(=O)CCCCCCCC=CCC=CCCCCC (stereo not drawn) [c128]
- Normalized data inhibition (%) (B16 melanocytes [1]; 30 μM): 9%
- Normalized data inhibition (%) (B16 melanocytes [1]; 100 μM): 93%
- Inhibition (%) (human leukocyte elastase; 30 μM): 75%

Compound: CCCCCCCCCCCCCC(=O)NC1CCC(NC(=O)CCCCCCCCCCCCC)C1 (stereo not drawn) [c132]
- % control 24 h ([3]; 10 μM): 131 % control
- % control 48 h ([4]; 10 μM): 138 % control

Compound: EGF: Epidermal Growth Factor, reference
- Stimulation (%) ([5]; 10 ng/ml): 89%
- % control 48 h ([4]; 10 ng/mL): 161 % control

Compound: N-methoxysuccinyl-Ala-Ala-Pro-Val-chloromethyl ketone (MeOSuc-AAPV-CH2Cl) [reference compound]
- Inhibition (%) (human leukocyte elastase; 100 μM): 95%

Compound: O=C(/C=C/CCCCCCCCCCCO)N[C@H]1C[C@H]1NC(=O)/C=C/CCCCCCCCCCCO [c7]
- Stimulation (%) ([5]; 10 μM): 63%

Compound: O=C(NC1CC1NC(=O)C(F)=CCCCCCCCCCCCCCCO)C(F)=CCCCCCCCCCCCCCCO (stereo not drawn) [c42]
- Variation/control ([6]; DOPA positive melanocyte count per mm2 vs DOPA control, product at 30 μg/mL in DMSO): −55
- effectiveness for limiting tyrosinase activity compared with reference compounds ([6]; vs ref 1): more effective than the reference compounds
- Stimulation (%) ([5]; 3 μM): 48%
- % control 24 h ([3]; 3 μM): 130 % control
- % control 48 h ([4]; 3 μM): 141 % control

Compound: CCCCCCCCCCC/C=C(/F)C(=O)N[C@@H]1CC[C@H](NC(=O)/C(F)=C\CCCCCCCCCCC)C1 [c85]
- Stimulation (%) ([5]; 10 μM): 22%
- % control 48 h ([4]; 10 μM): 176 % control
